Measured values published in patent publication US20220228164A1, “ENGINEERED ANTIGEN PRESENTING CELLS” (Neogene Therapeutics B.V., priority 2021, published 2022).

Legend:
Assay type in all cases: cell-based, human
[1] = test system: Jurkat T cells expressing the class II restricted MAGE-A3 TCR; assay: Peptide electroporation of BCL-6/BCL-xL-CD40L immortalized B cells, co-culture with TCR Jurkat T cells, CD69 (Example 12); settings: 25mer electroporated; MHC class II restricted TCR
[2] = test system: TCR-KO Jurkat T cells expressing the GCN1L1 TCR; assay: Peptide electroporation of BCL-6/BCL-xL-CD40L immortalized B cells, co-culture with TCR Jurkat T cells, CD69 (Examples 11, 12); settings: for presentation of the GCN1L1 antigen after peptide electroporation (CD69+ of live cells): electroporated into BCL-6/BCL-xL-CD40L immortalized B cells
Source text: Immortalized primary human B cells that are electroporated with a polypeptide of a uniform length (25mer) will be efficiently processed and present T cell epitopes encoded within the polypeptide via the MHC class I pathway and activate T cells expressing an MHC class I restricted TCR specific for the T cell epitope encoded within the polypeptide. BCL-6/BCL-xL-CD40L immortalized B cells from a healthy donor were electroporated with short (10mer) (ALLETPSLLL, SEQ ID NO: 5) or long (25mer) ([…], SEQ ID NO: 6) peptides encoding the GCN1L1 mutated peptide or CMV mutated long peptide ([…], SEQ ID NO: 7), using a method known to the skilled artisan. Briefly, for each sample, 0.2e6 B cells were harvested and washed with PBS. After removal of all PBS, the dry pellet was resuspended in electroporation buffer (SF-buffer, Lonza) at a concentration of 25e6 cells per mL. Of this mixture, 20 μL per sample was added to a 96 well tissue-culture-plate that contains the appropriate amount of peptide resulting in the indicated peptide concentration. Cells were transferred to a 16-well electroporation strip (Lonza) and subsequently electroporated using the DN100 program (Lonza Amaxa). Post-electroporation, cells were rested for 10 minutes at 37° C. and transferred to a 96 well round bottom tissue-culture plate in a final volume of 200 μL of Complete B cell Medium (RPMI1640 medium supplemented with 10% (v/v) Fetal Calf Serum (FCS), 1% (v/v) Penicillin/Streptomycin (P/S), 1% (v/v) Sodium Pyruvate, 1% (v/v) Non-essential amino acids, 1% (v/v) Glutamax, 50 nM 2-Mercaptoethanol) and incubated for 0, 2, 4, 5, 6, 10 or 24 hrs at 37° C. The resting period post peptide electroporation allows for exogenous loading of the peptide onto the target cells in a parallel experimental condition. […] After 20 hours, cells were stained with antibodies directed against CD8 and CD69 and specific recognition by TCR td T cells was measured by CD69 upregulation on a flow cytometer. […]

[3] = test system: TCR-KO Jurkat T cells expressing the CMV1 TCR; assay: as above; settings: 25mer electroporated; MHC class I restricted TCR
Source text: Immortalized primary human B cells that are electroporated with a polypeptide of a uniform length (25mer) will be efficiently processed and present T cell epitopes encoded within the polypeptide via the MHC class I pathway and activate T cells expressing an MHC class I restricted TCR specific for the T cell epitope encoded within the polypeptide. BCL-6/BCL-xL-CD40L immortalized B cells from a healthy donor were electroporated with short (10mer) (ALLETPSLLL, SEQ ID NO: 5) or long (25mer) ([…], SEQ ID NO: 6) peptides encoding the GCN1L1 mutated peptide or CMV mutated long peptide ([…], SEQ ID NO: 7), using a method known to the skilled artisan. Briefly, for each sample, 0.2e6 B cells were harvested and washed with PBS. After removal of all PBS, the dry pellet was resuspended in electroporation buffer (SF-buffer, Lonza) at a concentration of 25e6 cells per mL. […] After 20 hours, cells were stained with antibodies directed against CD8 and CD69 and specific recognition by TCR td T cells was measured by CD69 upregulation on a flow cytometer.
A CMV epitope was electroporated or loaded onto BCL-6/BCL-xL/CD40L immortalized B cells. T cell activation was measured for various concentrations of peptide after 6, 10 or 24 hours of post-electroporation resting (FIG. 17A) or were loaded with peptide (FIG. 17B) for similar time-points. […]

ILGDPKKLLTQHFVQENYLEYRQVP [MAGEA3]
post-electroporation rest with which the peptide elicits a response (% CD69) [1]: ≥ 2 h

ALLETPSLLL [short GCN1L1 peptide, short (10mer) peptide encoding the GCN1L1 mutated peptide]
presentation of the GCN1L1 antigen after peptide electroporation (CD69+ of live cells) [2]: efficient presentation

FSWNVKAALLETPSLLLAKVGIALK [long GCN1L1 peptide, long (25mer) peptide encoding the GCN1L1 mutated peptide]
post-electroporation rest with which the peptide elicits a response (% CD69) ([2]; 25mer electroporated, MHC class I restricted TCR): ≥ 2 h
presentation of the GCN1L1 antigen after peptide electroporation (CD69+ of live cells) [2]: efficient presentation

WQAGILARNLVPMVATVQGQNLKYQ [long CMV1 peptide, CMV long (25mer) peptide]
post-electroporation rest with which the peptide elicits a response (% CD69) [3]: ≥ 2 h
